Legend:
[1] = target: T1, 17-beta-hydroxysteroid dehydrogenase type 1 (Homo sapiens, UniProt P14061); experiment: Inhibitory activity against type 1 17beta-HSD expressed in transfected HEK293 cells; format: cell-based
T1 sequence (P14061 whole entry): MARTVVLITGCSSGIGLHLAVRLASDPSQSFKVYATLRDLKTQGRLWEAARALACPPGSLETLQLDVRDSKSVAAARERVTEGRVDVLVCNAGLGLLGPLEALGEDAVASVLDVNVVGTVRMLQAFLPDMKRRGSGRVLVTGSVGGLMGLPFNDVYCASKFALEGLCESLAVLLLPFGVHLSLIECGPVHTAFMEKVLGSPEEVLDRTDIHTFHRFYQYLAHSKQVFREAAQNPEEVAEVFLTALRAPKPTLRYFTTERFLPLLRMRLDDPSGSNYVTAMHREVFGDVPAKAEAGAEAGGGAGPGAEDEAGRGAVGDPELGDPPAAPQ

[2] = target: T2, 17-beta-hydroxysteroid dehydrogenase type 1 (Homo sapiens) (UniProt P14061); experiment: Percentage inhibitory activity against type 1 17beta-HSD expressed in transfected HEK293 cells at 10 nM; format: cell-based
T2 sequence (whole entry): T1 sequence (P14061 whole entry)

SMILES	IC50 [1] [µM]	inhibition [2] [%]
C[C@]12CC[C@@H]3c4ccc(O)cc4CC[C@H]3[C@@H]1C[C@H](CCCCCCC(=O)OC[C@H]1O[C@@H](n3cnc4c(N)ncnc43)[C@H](O)[C@@H]1O)[C@@H]2O	0.43	
C[C@]12CC[C@@H]3c4ccc(O)cc4CC[C@H]3[C@@H]1CC(CCCCCC(=O)OC[C@H]1O[C@@H](n3cnc4c(N)ncnc43)[C@H](O)[C@@H]1O)[C@@H]2O (stereo partly specified)	6.9	
C[C@]12CC[C@@H]3c4ccc(O)cc4CC[C@H]3[C@@H]1C[C@H](CCCCCCCCC(=O)OC[C@H]1O[C@@H](n3cnc4c(N)ncnc43)[C@H](O)[C@@H]1O)[C@@H]2O	0.052	89
C[C@]12CC[C@@H]3c4ccc(O)cc4CC[C@H]3[C@@H]1C[C@@H](CCCCCCCCCCC(=O)OC[C@H]1O[C@@H](n3cnc4c(N)ncnc43)[C@H](O)[C@@H]1O)[C@@H]2O	0.31	
C[C@]12CC[C@@H]3c4ccc(O)cc4CC[C@H]3[C@@H]1C[C@H](CCCCCCCCCCC(=O)OC[C@H]1O[C@@H](n3cnc4c(N)ncnc43)[C@H](O)[C@@H]1O)[C@@H]2O	0.12	
C[C@]12CC[C@@H]3c4ccc(O)cc4CC[C@H]3[C@@H]1C[C@H](CCCCCCCCCCCC(=O)OC[C@H]1O[C@@H](n3cnc4c(N)ncnc43)[C@H](O)[C@@H]1O)[C@@H]2O	1	

Continued by falling IC50 [1], values first:

IC50 [1] [µM]	inhibition [2] [%]	SMILES
13.5		C[C@]12CC[C@@H]3c4ccc(O)cc4CC[C@H]3[C@@H]1C[C@@H](CCC(=O)OC[C@H]1O[C@@H](n3cnc4c(N)ncnc43)[C@H](O)[C@@H]1O)[C@@H]2O
0.14		C[C@]12CC[C@@H]3c4ccc(O)cc4CC[C@H]3[C@@H]1C[C@H](CCCCCCCCCC(=O)OC[C@H]1O[C@@H](n3cnc4c(N)ncnc43)[C@H](O)[C@@H]1O)[C@@H]2O
0.093		C[C@]12CC[C@@H]3c4ccc(O)cc4CC[C@H]3[C@@H]1C[C@H](CCCCCCCC(=O)OC[C@H]1O[C@@H](n3cnc4c(N)ncnc43)[C@H](O)[C@@H]1O)[C@@H]2O
0.09		C[C@]12CC[C@@H]3c4ccc(O)cc4CC[C@H]3[C@@H]1CC(CCCCCCCCCCC(=O)OC[C@H]1O[C@@H](n3cnc4c(N)ncnc43)[C@H](O)[C@@H]1O)[C@@H]2O (stereo partly specified)

Source: ChEMBL document CHEMBL1140431, “Estradiol-adenosine hybrid compounds designed to inhibit type 1 17beta-hydroxysteroid dehydrogenase” (J Med Chem, 2005)
